Legend:
[1] = system: PI3K; experiment: Immunofluorescence of Ptdlns-3,4,5-P3 production in SYF/cSrc cells; type: cell-based, mouse; settings: for PMA-induced Ptdlns-3,4,5-P3 production: 100 nM PMA with 6 μM bisindolylmaleimide [I], 50 nM wortmannin, LY294002 or 5 μM PP1
Protocol: SYF/cSrc cells were serum-starved for 24 hours. Cells stimulated with 10% serum (panels c-f), 100 nM PMA for 5 (panels g-h), or 15 minutes (panels i-j); as well as treated with 100 nM PMA in combination with 6 μM bisindolylmaleimide [I] (panels k-I) or 50 nM wortmannin (panels m-n). Cells treated with 100 nM PMA in combination with 5 μM PP1 (panel o-p) and Ptdlns-3,4,5-P3 levels evaluated. Cells were immunolabeled with a PI-3,4,5-P3-specific antibody (Echelon, Inc.;1:100) and TRITC-phalloidin (1:500). Secondary antibody for anti-PI-3,4,5-P3 (1:100) was Alexa IgM 647 anti-mouse (1:200). Bars represent 20 μm.
(§1) SYF, SYF/cSrc, p85α+/+ and p85−/− cells were cultured in standard culture media. Transient transfections of SYF, SYF/cSrc, p85α+/+ cells for immunofluorescence were carried out using LipofectAMINE™ Reagent (Invitrogen) as per manufacturer's protocol. Briefly, Approximately 5.0-8.0×10^4 cells per well were transfected at 50-70% confluent on coverstips with 2-4 μg of plasmid DNA and incubated for 3-4 hours. Thirty-six hours after transfection, cells were serum starved for 12 hours, treated, and subsequently fixed and permeablized as previously described (Qian, Y. et. al., 1998). Cells were treated with a PKC activator, 100 nM PMA for 5 or 15 minutes or in combination with the following pretreatments; a PKC inhibitor, 6 μM bisindolylmaleimide [I] for six hours; or PI3K inhibitor, 10 μM LY294002 for six hours; 50 nM Wortmannin for 30 minutes; and/or a Src family inhibitor, 5 μM PP1 for six hours. For actin labeling, a 1:500 dilution of TRITC-phalloidin was used as labeled in the figures. Primary antibody concentrations used were diluted in 5% Bovine Serum Albumin (BSA) dissolved in 1× phosphate-buffered saline (PBS): EC10 mAb-1:500; Phospho-Src Family (Y416) pAb-1:250; Anti-PI-3,4,5-P3 mAb-1:100; Anti-AFAP-110 (F1)pAb-1:1000; Anti-cSrc pAb-1:500; Anti-flag-1:1000. All fluorescent secondary and phalloidin antibodies were diluted 1:200 in 5% BSA, and are labeled according to figure legends. Cells were washed and mounted on slides with Fluoromount-G (Fisher). A Zeiss LSM 510 confocal microscope was used to scan images of about 1 μM in thickness. To prevent cross-contamination between the different fluorochromes, each channel was imaged sequentially using the multitrack recording module before merging the images. For all figures, representative cells are shown (>100 cells examined per image shown).
Ptdlns-3,4,5-P3 production was measured using the anti-Ptdlns-3,4,5-P3 antibody (Echelon, inc.) for analysis by immunofluorescence and contrasted with stress filament integrity, measured using TRITC-phalloidin as previously described (Chen, R. et. al., 2002; Hama, H. et. al., 2004). SYF/cSrc cells were left untreated or treated with serum as controls for PI3K activation. […] In addition, SYF/cSrc cells were stimulated with PMA for 5 or 15 minutes.

[2] = molecular target: T1, PH1 domain of AFAP-110 (Gallus gallus, UniProt Q90738); experiment: Lipid binding assay (Far Western), GST-PH1; settings: 0.5 μg/ml fusion protein, lipids spotted on membrane
T1 construct: AFAP-110 contains two PH domains, one amino terminal (PH1) and the other carboxy terminal (PH2); made in house; host or cells: bacteria
Protocol: FIG. 5: The phospholipid binding properties of the PH domains of AFAP-110. A) Pleckstrin homology fusion proteins, GST-PH1, GST-PH2 and GST-DAPP1, were purified from bacteria by affinity chromatography. Phospholipids were spotted onto PVDF membranes as described in the methods section. The membranes were incubated overnight with 0.5 μg/ml • GST-PH1, GST-PH2 or GST-DAPP1. Washed membranes were incubated with anti-GST antibody and exposed to film.
B) Pleckstrin homology fusion protein, GST-PH1, was purified from bacteria by affinity chromatography. Two-fold changes in concentration (1.6 pg-100.0 pg) of phospholipids were spotted onto PVDF membranes as described in the methods section. The PIP arrays were incubated with 0.5 μg/ml fusion protein and probed with anti-GST antibody.
Pleckstrin homology (PH) fusion proteins GST-PH1, GST-PH2 and GST-DAPP1, were purified from bacteria by affinity chromatography. A Far Western Blot procedure was used for detecting the fusion protein binding to nitrocellulose immobilized phospholipids (Stevenson, J. Met. al., 1998); PIP strips and PIP arrays were purchased from Echelon, Inc. Overlay assays measured the relative amounts of GST-tagged fusion protein bound to spotted phospholipids. A plasmid encoding GST-DAPP1 previously shown to bind Ptdlns-3,4-P2 and Ptdlns-3,4,5-P3 (Dowler, S. et. al., 1999) was used as a control, kindly provided by Mark Lemmon (Lemmon, M. A., 2003). The membranes were wetted with methanol and then transferred to blocking solution composed of 3% BSA in TBS containing 1% Tween-20 (TBS-T) for 1 hour at 4° C. Membranes were incubated with 0.5 μg/ml each fusion proteins in TBS-T overnight at 4° C. Following incubation, membranes were rinsed three times with TBS-T, washed for 5 minutes and incubated at 4° C. for 1 hour with anti-GST antibody (1:20000 in TBS-T). Following the standard wash procedure, membranes were incubated at 4° C. for 30 minutes with peroxidase-conjugated secondary antibody (1:30000 in TBS-T). The washed membranes were incubated with chemiluminescence reagent and exposed to X-ray film.

[3] = molecular target: T1, PH1 domain of AFAP-110; experiment: Lipid sedimentation assay, GST-PH1; type: binding; settings: PC vesicles with lipid 19:1 (PC:PS 7:3), 0.025 mM GST fusion protein
Protocol: E) Lipid sedimentation assay was performed using pleckstrin homology fusion protein GST-PH1 as described in the methods sections. The GST-PH1 fusion protein has the capacity to co-sediment with several lipids containing vesicles as indicated in the pellet (P). Soluble fractions (S) containing unbound GST-PH1 purified fusion proteins were resolved by SDS-PAGE and detected by Coomassie stain.
A sedimentation assay was used to detect PH domain protein association with membrane phospholipids. Phospholipid stock solutions: 1 mg/ml L-α-Ptdlns-4-P, 1.0 mg/ml 1,2-dipalmitoyl-sn-glycero-3-Ptdlns-3-P, 0.1 mg/ml 1,2-dioleoyl-sn-glycero-3-Ptdlns-3,4-P2, and 1 mg/ml L-α-Ptdlns-4,5-P2 in chloroform:methanol:water (60:30:4). However, 10 mg/ml L-α-phosphatidylinositol, 0.1 mg/ml L-α Ptdlns-3-P, 0.2 mg/ml L-α-Ptdlns-3,4,5-P3, 10 mg/ml L-α-phosphatidylserine, and 10 mg/ml L-α-phosphatidylcholine in chloroform neat. All lipid stocks were purged with dry N2 and stored −20° C. The lipid vesicles were prepared as follows utilizing a sonication method. Briefly, in a heavy walled tube, PC and another stock phospholipid (e.g. Ptdlns, Ptdlns-3-P, Ptdlns-4-P, Ptdlns-3,4-P2, Ptdlns-3,5-P2, Ptdlns-3,4,5-P3, or PC) were combined in a 19:1 molar ratio; PC and PS were combined in a 7:3 molar ratio. Lipids were dried with a stream of N2 and traces of solvent were removed by vacuum and resuspended to 5.2 mM PC in buffer B [10 mM HEPES, pH 7.5, 50 mM KCl, 0.5 mM EGTA, and 1.0 mM MgCl2]. The resulting phospholipid sheets were sonicated to form vesicles. Samples were prepared to contain 1.7 mM vesicle PC and 0.025 mM recombinant GST fusion protein (DAPP1 or PH1) in buffer B. Samples were incubated 60 min and centrifuged with a Beckman Airfuge for 15 min at room temperature. 16% of the supernatant and 100% of the pellet from each sample was used for analysis by Laemmli method of SDS polyacrylamide gel electrophoresis. The gels were stained with SYPRO Orange or Coomassie Blue to visualize the proteins.

[4] = system: cSrc; experiment: Immunofluorescence: translocation of cSrc from the perinuclear region to the cell periphery; type: cell-based, mouse; settings: SYF cells, 100 nM PMA with 6 μM bisindolylmaleimide or 10 μM LY
Protocol: FIG. 2: Inhibition of PI3K blocks translocation of cSrc from the perinuclear region of mouse embryo fibroblast in response to PMA treatment. SYF and p85−/− null cells were transiently transfected with cSrc and labeled for avian cSrc using EC10, an avian-specific monoclonal antibody (1:500). EC10 was visualized with anti-mouse Atexa Fluor 488 (false colored red for consistency). Cells treated with 100 nM PMA (panel b) induced translocation of cSrc to the cell periphery as indicated by the arrows. However, cells treated with 100 nM PMA in conjunction with 6 μM bisindolylmaleimide (panel c) or 10 μM LY (panel d) blocked the translocation of cSrc as indicated by the arrows. […] (n=nucleus) Bars represent 20 μM.
as §1, with “All fluorescent secondary and phalloidin antibodies were diluted 1:200 in 5% BSA, and are labeled according to figure legends. Cells were washed and mounted on slides with Fluoromount-G (Fisher). A Zeiss LSM 510 confocal microscope was used to scan images of about 1 μM in thickness. To prevent cross-contamination between the different fluorochromes, each channel was imaged sequentially using the multitrack recording module before merging the images. For all figures, representative cells are shown (>100 cells examined per image shown).” left out

[5] = system: AFAP-110 colocalization with cSrc and cSrc activation; experiment: Immunofluorescence: PMA-induced colocalization of AFAP-110 with cSrc and cSrc activation in mouse embryo fibroblasts; type: cell-based; settings: 100 nM PMA 15 min
Protocol: FIG. 1: LY294002 blocks PMA-induced colocalization between AFAP-110 and cSrc, and subsequent cSrc activation. A) SYF cells transiently co-expressing GFP-AFAP-110 and cSrc were untreated (panels a-d), treated with 100 nM PMA for 15 minutes (panels e-h), or treated with PMA and either 6 μM bisindolylmaleimide (panels i-I), 10 μM LY294002 (panels m-p) or 50 nM Wortmannin (panels q-t). Fixed cells were immunolabeled with avian specific cSrc antibody, EC10 (1:500), and phospho-Src-family (Tyr416) (1:250) as described in the methods section. Secondary antibodies used were Atexa 546 anti-mouse for EC10 and Alexa 647 anti-rabbit for phospho-Src-family (Tyr416). A merged image was generated to determine colocalization between AFAP-110 and cSrc. Bars represent 20 μM.
D) Knockout MEFs (p85−/−) were transfected with GFP-AFAP-110 and cSrc. Fixed cells were immunolabeled with EC10 (1:500) and phospho-Src-family (Tyr416) (1:250) as described in the methods section. Secondary antibodies used were Alexa 546 anti-mouse for EC10 and Alexa 647 anti-rabbit for phospho-Src-family (Tyr416). Cells treated with 100 riM PMA for 15 minutes (panels e-h). Images were merged to determine colocalization of cSrc and GFP-AFAP-110. Bars represent 20 μm. Mouse embryo fibroblast cells that express the p85α isoform of the PI3K regulatory subunit (p85α+/+) were transfected with GFP-AFAP-110 and cSrc. Fixed cells were immunolabeled with EC10 (1:500) and phospho-Src-family (Tyr416) (1:250) as described in the methods section. Secondary antibodies used were Alexa 546 anti-mouse for EC10 and Alexa 647 anti-rabbit for phospho-Src-family (Tyr416). Images were merged to determine colocalization of cSrc and GFP-AFAP-110. Bars represent 20 μm.
as §1
We utilized SYF cell lines as a model system, mouse embryo fibroblasts engineered to contain null mutations in the c-src,fyn, and c-yes genes (Klinghoffer, R. A. et. al., 1999). The cells were transiently co-transfected with constructs that encode cSrc and GFP-tagged AFAP-110, as previously described (Gatesman, A. et. al., 2004). […]

[6] = SYF cells co-expressing GFP-AFAP-110 and cSrc, pretreatment 6 μM bisindolylmaleimide, 10 μM LY294002 or 50 nM Wortmannin

T1 sequence (Q90738 153-249 limits assumed): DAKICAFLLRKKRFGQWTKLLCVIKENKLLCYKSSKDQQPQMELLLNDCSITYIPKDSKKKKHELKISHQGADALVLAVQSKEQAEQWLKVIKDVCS

Row | Compound | binding of GST-PH1 to immobilized phospholipid (far western) [2] | binding (co-sedimentation) of GST-PH1 to lipid vesicles containing the lipid [3] | also measured
1 | Cc1ccc(-c2nn(C(C)(C)C)c3ncnc(N)c23)cc1 [PP1] | – | – | PMA-directed changes in stress filaments and cell shape ([1]; 100 nM PMA with 5 μM PP1): impeded; PMA-induced Ptdlns-3,4,5-P3 production [1]: did not block
2 | CCCCCCCCCCCCCCCC(=O)OC[C@H](COP(=O)(O)O[C@@H]1[C@H](O)[C@H](OP(=O)(O)O)[C@@H](O)[C@H](O)[C@H]1O)OC(=O)CCCCCCCCCCCCCCC [Ptdlns-3-P, phosphatidylinositol-3-phosphate] | strong binding | did not bind | –
3 | CN(C)CCCn1cc(C2=C(c3c[nH]c4ccccc34)C(=O)NC2=O)c2ccccc21 [bisindolylmaleimide [I]] | – | – | PMA-induced translocation of cSrc from the perinuclear region to the cell periphery [4]: blocked; PMA-induced Ptdlns-3,4,5-P3 production [1]: blocked; PMA-induced cSrc activation (phospho-Src-family Tyr416) [5, 6]: blocked; PMA-induced colocalization of AFAP-110 with cSrc [5, 6]: blocked; PMA-induced associated morphological changes ([5]; SYF cells, pretreatment 6 μM bisindolylmaleimide or 10 μM LY294002): blocked
4 | phosphatidic acid | better than any other phospholipid analyzed | – | –
5 | phosphatidylserine | had the capacity to recognize | has the capacity to bind | –

Now from value to compound, other results behind:

Row | binding of GST-PH1 to immobilized phospholipid (far western) [2] | binding (co-sedimentation) of GST-PH1 to lipid vesicles containing the lipid [3] | Compound | also measured
6 | not recognized | – | Lysophosphatidic acid | –
7 | not recognized | – | Phosphatidylethanolamine | –
8 | did not bind | – | phosphatidylinositol | –
9 | strong binding | has the capacity to bind | phosphatidylinositol-4-phosphate [Ptdlns-4-P] | –
10 | strong binding | has the capacity to bind | phosphatidylinositol-5-phosphate [Ptdlns-5-P] | –
